# Measurements taken from US9655877B2, “Therapeutic methods for treating inflammation and immune system disorders” (priority 2009, dated 2017).
# Columns and labels:
# [1] = test system: nitrite production in BV-2 cells; assay: LPS-induced nitrite (nitric oxide) production in BV-2 cells, Griess reagent; format: cell-based, murine; settings: 100 ng/ml LPS, 18 hours
# Protocol: Nitrite levels in the culture media were determined using Griess reagent under manufacturer's instructions (Sigma Aldrich, St. Louis, Mo.). Fresh culture media were used as blanks and the nitrite levels were determined by using a standard sodium nitrite curve.
# The effect of each extract on nitric oxide production is evaluated according to the procedures illustrated as follows. Briefly, murine microglia cell line BV-2 is maintained in Dulbecco's modified Eagle's minimum essential medium (DMEM) supplemented with 10% FBS and 1% penicillin and streptomycin (Invitrogen Life Technologies, Carlsbad, Calif.) at 37° C. in a humidified atmosphere with 5% CO2 in warm air.
# 0.1 M cells/ml BV-2 cells are seeded in 24-well plates (0.5 ml in each well). Cells are treated with 0.05% DMSO; 0.05% DMSO and 100 ng/ml LPS; or 100 ng/ml LPS and 50 μg/ml of an LCX extract for 18 hours, respectively. The culture supernatant is collected. The nitric oxide level is measured using the Griess reagent according to standard manufacturer's instructions (Sigma Aldrich, St. Louis, Mo.), and assessed using the standard sodium nitrite curve.
# The effect of senkyunolide A (Sen A) and Z-ligustilide (Z-Lig) at various concentrations on LPS-induced nitrite production is further evaluated in this Example. Briefly, 0.1 M cells/ml BV-2 cells are seeded in 24-well plates (0.5 ml in each well). Cells are treated with 0.05% DMSO; 0.05% DMSO and 100 ng/ml LPS; 50 μg/ml Sen A/Z-Lig; or 100 ng/ml LPS and Sen A/Z-Lig at a concentration of 1 μg/ml, 5 μg/ml, 10 μg/ml, 25 μg/ml, and 50 μg/ml for 18 hours, respectively. The culture supernatant is collected. The nitric oxide level is measured using the Griess reagent according to standard manufacturer's instructions (Sigma Aldrich, St. Louis, Mo.), and evaluated using the standard sodium nitrite curve.
# [2] = test system: TNF-α protein production in BV-2 cells; assay: LPS-induced TNF-α protein production in BV-2 cells, ELISA; format: cell-based, murine; settings: 100 ng/ml LPS, 18 hours
# Protocol: To measure the TNF-α level in cell culture supernatants, BV-2 cells were seeded at 1×10^5 cells/ml in the volume of 0.5 ml in 24-well culture plates. They were co-treated with or without 100 ng/ml LPS in the absence or presence of indicated concentrations of bioactive compounds of LCX for 18 h. In addition, PBMac cells were seeded at 1×10^6 cells/ml in the volume of 0.5 ml in 24-well plates. After incubation, the supernatants were collected and TNF-α levels were determined by ELISA according to the manufacturer's instructions (R&D Systems).
# The role of senkyunolide A (Sen A) and Z-ligustilide (Z-Lig) in suppressing TNF-α production is further evaluated in this Example. Briefly, 5×10^4 cells/ml BV-2 cells are seeded in 24-well plates (0.5 ml in each well). Cells are treated with 0.05% DMSO; 0.05% DMSO and 100 ng/ml LPS; 50 μg/ml Sen A/Z-Lig; or 100 ng/ml LPS and Sen A/Z-Lig at a concentration of 1 μg/ml, 5 μg/ml, 10 μg/ml, 25 μg/ml, and 50 μg/ml for 18 hours, respectively. The culture supernatant is collected and the level of secreted TNF-α is measured by ELISA.
# [3] = test system: TNF-α production in human blood macrophages; assay: LPS-induced TNF-α production in human blood macrophages (PBMac), ELISA; format: cell-based; settings: 25 or 50 μg/ml for 24 hours, then 1 ng/ml LPS for 24 hours
# Protocol: To measure the TNF-α level in cell culture supernatants, BV-2 cells were seeded at 1×10^5 cells/ml in the volume of 0.5 ml in 24-well culture plates. They were co-treated with or without 100 ng/ml LPS in the absence or presence of indicated concentrations of bioactive compounds of LCX for 18 h. In addition, PBMac cells were seeded at 1×10^6 cells/ml in the volume of 0.5 ml in 24-well plates. After incubation, the supernatants were collected and TNF-α levels were determined by ELISA according to the manufacturer's instructions (R&D Systems). […] To study the effect of Sen A and Z-Lig at various concentrations on TNF-α production, 1×10^6 cells/ml (FIG. 6) PBMac cells are seeded in 24-well plates (0.5 ml in each well). Cells are treated with 25 μg/ml or 50 μg/ml Sen A, Z-Lig, or DMSO for 24 hours prior to the addition of 1 ng/ml LPS, and further incubated for another 24 hours. The culture supernatants are collected and the level of secreted TNF-α is measured by ELISA according to the manufacturer's instructions (R&D Systems, Minneapolis, Minn.).
# [4] = test system: Neuro-2a cells; assay: Neuro-2a cells treated with compound alone in the culture media; format: cell-based, murine; settings: compound alone in the culture media (data not shown)
# Description: Specifically, a significant reduction in cell death, to less than 15% and 25%, respectively, was observed.
structure (smiles),measurement,setting,value
CCCC[C@H]1OC(=O)C2=C1CCC=C2 [senkyunolide A],reduction in nitrite production,[1]; 10 μg/ml,approximately 4 fold
same,reduction in nitrite production,[1]; 25 μg/ml,~20 fold
same,effect on nitrite production,[1]; 50 μg/ml,almost completely inhibits nitrite production
same,reduction in TNF-α production,[2]; 10 μg/ml,approximately 2 fold
same,reduction in TNF-α production,[2]; 25 μg/ml,~4 fold
same,reduction in TNF-α production,[2]; 50 μg/ml,~10 fold
same,effect on endotoxin-induced TNF-α production,[3],suppress endotoxin-induced TNF-α production in a dose-dependent manner
same,cell death with compound alone,[4],did not show cell death
